Laboratory results reported in patent US20230357447A1, “TUMOR ACTIVATED MULTISPECIFIC ANTIBODIES FOR TARGETING CD28 AND PD-L1 AND METHODS OF USE THEREOF” (Janux Therapeutics, Inc., priority 2022, published 2023).

Tested on: anti-CD28 scFv
Assay: Phage binding ELISA (panning) of clonal phage on anti-CD28 scFv, with or without CD28 soluble protein
Conditions: for Phage binding ELISA Backgroud signal / Backgroud signal: clonal phage supernatant; for CD28 scFv signal in presence of CD28 / CD28 scFv signal / Backgroud signal: Phage binding ELISA; for CD28 scFv signal in presence of CD28: captured anti-CD28 scFv pre-incubated with CD28 soluble protein; for CD28 scFv signal: captured biotinylated anti-CD28 scFv; for Backgroud signal: background wells
Procedure: Clonal phage were harvested as crude supernatants and screened via standard enzyme linked immunosorbent assays (ELISAs). […] Prior to the addition of clonal phage, wells were incubated with blocking buffer and CD28 soluble protein or blocking buffer alone. Without washing or aspirating, clonal phage supernatants were then added to the wells and incubated for a short time. Wells were then washed followed by detection of bound phage using a horse radish peroxidase conjugated anti-M13 antibody. Clonal phage of interest were then sent for sequence analysis.

[1] = background (no anti-CD28 scFv signal)

**Q.** Phage-232 (MDWCARFVGYGCLD) was tested. Which “Phage binding ELISA Backgroud signal” value (background signal) did it give?
**A.** The value was 0.948.

**Q.** For Phage-254 (MDWCPRYLWSECFA), which “Phage binding ELISA Backgroud signal” value (background signal) is on record?
**A.** The value was 0.078.

**Q.** For Phage-330 (MDWCPRFLWDVCFN), which “Phage binding ELISA Backgroud signal” value (background signal) is on record?
**A.** The value was 0.100.

**Q.** With Phage-199 (MDWCPRNMWAQCFA) as the substance, how does the “Phage binding ELISA Backgroud signal” value (background signal) read?
**A.** The value was 0.102.

**Q.** With Phage-112 (MHWCPRALWDVCYN) as the substance, how does the “CD28 scFv signal in presence of CD28” value read?
**A.** The value was 0.240.

**Q.** And the “CD28 scFv signal” value (blocking buffer alone)?
**A.** Its value is 2.528.

**Q.** And the Backgroud signal?
**A.** The Backgroud signal was 0.077.

**Q.** How did the “Phage binding ELISA Backgroud signal” value (background signal) turn out when Phage-313 (MDWCPRSLWNYCFN) was run?
**A.** The value was 0.076.

**Q.** How did the “Phage binding ELISA Backgroud signal” value (background signal) turn out when Phage-342 (MDWCPRNLWHECFA) was run?
**A.** Its value is 0.067.

**Q.** How did the “Phage binding ELISA Backgroud signal” value (background signal) turn out when Phage-348 (MAWCPWYLWDECFN) was run?
**A.** Its value is 0.200.

**Q.** How did the “CD28 scFv signal in presence of CD28” value turn out when Phage-110 (MDWCPRYLWDECFN) was run?
**A.** The value was 0.283.

**Q.** What about the “CD28 scFv signal” value (blocking buffer alone) of the same substance?
**A.** Its value is 2.529.

**Q.** What about the Backgroud signal of the same substance?
**A.** The Backgroud signal was 0.069.

**Q.** Which “Phage binding ELISA Backgroud signal” value [1] does the source give for Phage-415 (MDWCPMYMWHKCFH) here?
**A.** The value was 0.099.

**Q.** How did the Backgroud signal turn out when Phage-155 (MHWCPLHLWNECYH) was run?
**A.** The Backgroud signal was 0.063.

**Q.** With Phage-443 (MDWCPMTRWNDCYF) as the substance, how does the “Phage binding ELISA Backgroud signal” value [1] read?
**A.** The value was 0.081.

**Q.** How did the “Phage binding ELISA Backgroud signal” value (background signal) turn out when Phage-234 (MDWCPRALWFECFF) was run?
**A.** The value was 0.111.

**Q.** How did the “Phage binding ELISA Backgroud signal” value (background signal) turn out when Phage-216 (MDWCPMNMWYQCFN) was run?
**A.** Its value is 0.110.

**Q.** For Phage-308 (MDWCPKSLWAECFN), which “Phage binding ELISA Backgroud signal” value (background signal) is on record?
**A.** Its value is 0.395.

**Q.** For Phage-174 (MDWCPKHLWNECFN), which “Phage binding ELISA Backgroud signal” value (background signal) is on record?
**A.** The value was 0.063.

**Q.** For Phage-222 (MDWCPRDQWHNCFN), which “Phage binding ELISA Backgroud signal” value (background signal) is on record?
**A.** The value was 0.075.

**Q.** Which Backgroud signal does the source give for Phage-117 (MDWCPRYLWFECFS) here?
**A.** Its Backgroud signal is 0.079.

**Q.** For Phage-272 (MVWCMSVGWAVCLN), which “Phage binding ELISA Backgroud signal” value (background signal) is on record?
**A.** Its value is 0.289.

**Q.** With Phage-248 (MDWCPRNMWHHCFD) as the substance, how does the “Phage binding ELISA Backgroud signal” value (background signal) read?
**A.** The value was 0.205.

**Q.** Phage-202 (MFWCPMDMWDQCFN) was tested. Which “Phage binding ELISA Backgroud signal” value (background signal) did it give?
**A.** The value was 0.091.

**Q.** With Phage-120 (MDWCPRDLWHACFS) as the substance, how does the Backgroud signal read?
**A.** Its Backgroud signal is 0.074.

**Q.** Which “CD28 scFv signal in presence of CD28” value does the source give for Phage-92 (MDWCPRHLWHECFF) here?
**A.** Its value is 0.373.

**Q.** And the “CD28 scFv signal” value (blocking buffer alone)?
**A.** Its value is 2.583.

**Q.** What about the Backgroud signal of the same substance?
**A.** Its Backgroud signal is 0.364.

**Q.** Phage-283 (MDWCPRHLWNECFN) was tested. Which “Phage binding ELISA Backgroud signal” value (background signal) did it give?
**A.** Its value is 0.079.

**Q.** Phage-205 (MDWCPTDMWHHCFL) was tested. Which “Phage binding ELISA Backgroud signal” value (background signal) did it give?
**A.** Its value is 0.061.

**Q.** How did the Backgroud signal turn out when Phage-116 (MDWCPRDLWYACFA) was run?
**A.** Its Backgroud signal is 0.072.

**Q.** With Phage-369 (MHWCPRDLWYECFA) as the substance, how does the “Phage binding ELISA Backgroud signal” value (background signal) read?
**A.** Its value is 0.072.

**Q.** How did the “Phage binding ELISA Backgroud signal” value (background signal) turn out when Phage-173 (MDWCPMNLWSECFN) was run?
**A.** Its value is 0.168.

**Q.** For Phage-147 (MHWCPRDLWVVCFN), which Backgroud signal is on record?
**A.** The Backgroud signal was 0.070.

**Q.** For Phage-286 (MERCPRYLWHMCYS), which “Phage binding ELISA Backgroud signal” value (background signal) is on record?
**A.** Its value is 0.164.

**Q.** How did the “Phage binding ELISA Backgroud signal” value (background signal) turn out when Phage-213 (MNWCPSYMWDQCFA) was run?
**A.** The value was 0.125.

**Q.** Phage-126 (MDWCPRFLWNECFN) was tested. Which Backgroud signal did it give?
**A.** Its Backgroud signal is 0.072.

**Q.** How did the “Phage binding ELISA Backgroud signal” value (background signal) turn out when Phage-184 (MHWCPINLWNECFS) was run?
**A.** The value was 0.081.

**Q.** Phage-191 (MDWCPRDMWYECFN) was tested. Which “Phage binding ELISA Backgroud signal” value (background signal) did it give?
**A.** The value was 0.099.

**Q.** Phage-363 (MNWCPMHLWAECFN) was tested. Which “Phage binding ELISA Backgroud signal” value (background signal) did it give?
**A.** The value was 0.087.

**Q.** Which “Phage binding ELISA Backgroud signal” value (background signal) does the source give for Phage-69 (MDWCPIHMWADCFA) here?
**A.** Its value is 0.065.

**Q.** Which “Phage binding ELISA Backgroud signal” value (background signal) does the source give for Phage-45 (MDWCPRPLWHECFS) here?
**A.** The value was 0.078.

**Q.** Which Backgroud signal does the source give for Phage-149 (MDWCPRDLWAVCFA) here?
**A.** The Backgroud signal was 0.070.

**Q.** Phage-452 (MDWCPRDWWHMCFN) was tested. Which “Phage binding ELISA Backgroud signal” value [1] did it give?
**A.** The value was 0.100.

**Q.** Which “Phage binding ELISA Backgroud signal” value (background signal) does the source give for Phage-42 (MDWCPRHLWVHCFN) here?
**A.** The value was 0.071.

**Q.** With Phage-241 (MDWCPRHLWHECYS) as the substance, how does the “Phage binding ELISA Backgroud signal” value (background signal) read?
**A.** Its value is 0.066.

**Q.** Which “Phage binding ELISA Backgroud signal” value (background signal) does the source give for Phage-301 (MDWCPRYLWHECFF) here?
**A.** The value was 0.082.

**Q.** Which “Phage binding ELISA Backgroud signal” value (background signal) does the source give for Phage-240 (MDWCPRTLWHVCFN) here?
**A.** The value was 0.317.

**Q.** Phage-343 (MDWCPRDLWTQCFF) was tested. Which “Phage binding ELISA Backgroud signal” value (background signal) did it give?
**A.** Its value is 0.065.

**Q.** With Phage-145 (MDWCPKHLWIECFA) as the substance, how does the Backgroud signal read?
**A.** The Backgroud signal was 0.065.

**Q.** For Phage-153 (MDWCPRHLWDLCFF), which Backgroud signal is on record?
**A.** Its Backgroud signal is 0.093.

**Q.** Phage-433 (MAWCPWAQFDECLA) was tested. Which “Phage binding ELISA Backgroud signal” value [1] did it give?
**A.** Its value is 0.073.

**Q.** Phage-160 (MHWCPRALWHECFN) was tested. Which “Phage binding ELISA Backgroud signal” value (background signal) did it give?
**A.** The value was 0.070.

**Q.** For Phage-270 (MDWCPRDFWAFCFF), which “Phage binding ELISA Backgroud signal” value (background signal) is on record?
**A.** The value was 0.118.

**Q.** For Phage-228 (ITWCHVISGLECWN), which “Phage binding ELISA Backgroud signal” value (background signal) is on record?
**A.** Its value is 0.076.

**Q.** How did the “Phage binding ELISA Backgroud signal” value (background signal) turn out when Phage-274 (WVSCLRHHWLECFH) was run?
**A.** Its value is 0.781.

**Q.** Which “Phage binding ELISA Backgroud signal” value (background signal) does the source give for Phage-359 (MDWCPRPLWHECFA) here?
**A.** The value was 0.063.

**Q.** Which “Phage binding ELISA Backgroud signal” value [1] does the source give for Phage-427 (VILCPTTMWNRCFH) here?
**A.** The value was 0.100.

**Q.** Which “Phage binding ELISA Backgroud signal” value (background signal) does the source give for Phage-328 (MDWCPRALWDHCFN) here?
**A.** The value was 0.323.

**Q.** For Phage-224 (MDWCPKDRWNDCYF), which “Phage binding ELISA Backgroud signal” value (background signal) is on record?
**A.** The value was 0.078.

**Q.** Which “Phage binding ELISA CD28 scFv signal in presence of CD28” value (clonal phage supernatant on captured anti-CD28 scFv pre-incubated with CD28 soluble protein) does the source give for Phage-44 (MDWCPIALWAECFN) here?
**A.** The value was 0.224.

**Q.** What about the “Phage binding ELISA CD28 scFv signal” value (clonal phage supernatant on captured biotinylated anti-CD28 scFv, blocking buffer alone) of the same substance?
**A.** The value was 2.458.

**Q.** And the “Phage binding ELISA Backgroud signal” value (background signal)?
**A.** The value was 0.111.

**Q.** How did the Backgroud signal turn out when Phage-143 (LDWCPLNLWDLCYF) was run?
**A.** The Backgroud signal was 0.062.

**Q.** With Phage-57 (MDWCPRHRWVDCFY) as the substance, how does the “Phage binding ELISA Backgroud signal” value (background signal) read?
**A.** Its value is 0.073.
